Read-outs that look alike come from different tables or passages of the source.
Legend:
[1] = test system: Ba/F3 cells stably expressing HER2 mutations (exons 19, 20, 21); experiment: Ba/F3 HER2 mutant cell viability (Cell Titer Glo) TKI screen; format: cell-based; settings: for inhibitory activity for HER2 mutants across all three exons: exons 19, 20, 21; for inhibitory activity for HER2 mutants across all three exons / activity against cells expressing D769 variants / inhibiting cell viability in cells expressing exon 20 mutations: 72 hours; for sensitivity of HER2 mutants to inhibitor: all HER2 mutants, 72 hours drug treatment; for activity against cells expressing D769 variants: HER2 D769 variants; for inhibiting cell viability in cells expressing exon 20 mutations: HER2 exon 20 mutations
Procedure: Briefly, stable Ba/F3 cell lines were generated by retroviral transduction of Ba/F3 cell line for 12 hours. […] Three days after transduction, 2 μg/ml puromycin (Invitrogen) was added to the RPMI media. After 5 days of selection, cells were stained with FITC-HER2 (Biolegend) sorted by FACS. Cell lines were then grown in the absence of IL-3 for two weeks and cell viability was assessed every three days using the Cell Titer Glo assay (Progema).
(§1) Briefly, 2000-3000 cells per well were plated in 384-well plates (Greiner Bio-One) in technical triplicate. Cells were treated with seven different concentrations of tyrosine kinase inhibitors or vehicle alone at a final volume of 40 μL per well. After 3 days, 11μL of Cell Titer Glo was added to each well. Plates were shaken for 15 minutes, and bioluminescence was determined using a FLUOstar OPTIMA multi-mode micro-plate reader (BMG LABTECH). Bioluminescence values were normalized to DMSO treated cells, and normalized values were plotted in GraphPad Prism using non-linear regression fit to normalized data with a variable slope.

[2] = test system: patients with HER2 mutant NSCLC; settings: cited from earlier work
[3] = test system: MCF10A HER2 mutant cell lines; experiment: MCF10A cell viability, HER2 exon 20 mutant cell lines together (average, selectivity vs HER2 WT, T-DM1 combination); format: cell-based, human
Procedure: as §1
Human Cell lines: MCF10A cells were purchased from ATCC and were cultured in DMEM/F12 media supplemented with 1% penicillin/streptomycin, 5% horse serum (sigma), 20 ng/ml EGF, […] hydrocortisone, and 10 μg/ml insulin. […] Two days after transduction, 0.5 μg/ml puromycin (Invitrogen) was added to the RPMI media. […] CW-2 cells were provided by the Riken cell line database under MTA, and were maintained in RPMI containing 10% FBS and 1% penicillin/streptomycin.

[4] = test system: CW-2 colorectal cell xenograft (HER2 L755S); experiment: CW-2 xenograft mouse model; format: in vivo, nu/nu nude mice; settings: day 21, 30 mg/kg, 5 days/week
Procedure: In vivo xenograft studies: CW-2 cell line xenografts were created by injecting 1×10^6 cells in 50% matrigel into 6 week old female nu/nu nude mice. When tumors reached 350 mm^3 mice were randomized into 4 groups: 20 mg/kg afatinib, 5 mg/kg poziotinib, 30 mg/kg neratinib, or vehicle control (0.5% Methylcellulose, 2% Tween-80 in dH2O). Tumor volumes were measured three times per week. Mice received drug Monday-Friday (5 days per week), but began dosing on Wednesday allowing for a 2 day holiday after the first 3 days of dosing.

[5] = test system: p-HER2; experiment: Western blot of p-HER2 in MCF10A HER2 G776delinsVC cells; format: cell-based, human; settings: 10 nM, 2 hours treatment
Procedure: Western Blotting: For Western blotting, cells were washed in PBS and lysed in RIPPA lysis buffer (ThermoFisher) and protease inhibitor cocktail tablets (Roche). Protein (30-40 μg) was loaded into gels purchased from BioRad. BioRad semi-dry transfer was used and then probed with antibodies against, pHER2, HER2, pPI3K, PI3K, p-AKT, AKT, p-ERK1/2, and ERK1/2 (1:1000; Cell Signaling). Blots were probed with antibodies against vinculin or β-actin (Sigma-Aldrich) as a loading control, and exposed using ECL Western Blotting substrate (Promega).

[6] = test system: patients with HER2 mutant cancers; settings: cited from earlier work
[7] = test system: CW-2 large intestine cells harboring HER2 exon 19 mutation L755S; experiment: CW-2 cell viability; format: cell-based; settings: Homo sapiens, CW-2, 72 h, read-out: average IC50
Procedure: as §1, with “Cell Viability Assay and IC50 Estimation: Cell viability was determined using the Cell Titer Glo assay (Promega) as previously described (Robichaux et al., 2018). Briefly,” for “Briefly,”, “slope. IC50 values were calculated by GraphPad Prism at 50% inhibition.” for “slope.”
Human Cell lines: MCF10A cells were purchased from ATCC and were cultured in DMEM/F12 media supplemented with 1% penicillin/streptomycin, 5% horse serum (sigma), 20 ng/ml EGF, […] hydrocortisone, and 10 μg/ml insulin. Stable cell lines were created by retroviral transduction, and retroviruses were generated by transfecting pBabe-Puro based vectors summarized in Table 1 (Addgene and Bioinnovatise) into Phoenix 293T-ampho cells (Orbigen) using Lipofectamine 2000 (Invitrogen). […]

[8] = test system: patients with HER2 mutant NSCLC; settings: cited from earlier work; remark: listed apart in the source
[9] = test system: HER2 Y772dupYVMA NSCLC PDX; experiment: HER2 Y772dupYVMA NSCLC PDX model; format: in vivo, NSG mice
Procedure: Y772dupYVMA PDX mice were purchased from Jax Labs (Model #TM01446). Fragments from tumors expressing HER2 Y772dupYVMA were inoculated into 5- to 6-week old female NSG mice (Jax Labs #005557). Mice were measured three times per week, and when tumors reached a volume of 200-300 mm^3 mice were randomized into four treatment groups: vehicle control (0.5% Methylcellulose, 0.05% Tween-80 in dH2O), 2.5 mg/kg poziotinib, 10 mg/kg T-DM1, or combination of 2.5 mg/kg poziotinib and 10 mg/kg T-DM1. Tumor volumes and body weight were measured three times per week. Mice treated with 2.5 mg/kg poziotinib received drug orally Monday-Friday (5 days per week). Mice treated with 10 mg/kg T-DM1 received one intravenous (IV) dose of T-DM1 on the day of randomization. Mice treated with combination poziotinib and T-DM1 received one IV dose of T-DM1 and began 2.5 mg/kg poziotinib five days per week, 3 days after the dose of T-DM1. Mice received a holiday from dosing if the mouse dropped in body weight by greater than 10% or if body weight dropped below 20 grams. Progression free survival was defined as tumor doubling from best response for two consecutive measurements. Complete regression was defined as greater than 95% reduction in tumor burden, and for mice with complete regression, tumor doubling was defined greater than 75 mm^3 for more than two consecutive measurements. Experiments were completed in agreement with Good Animal Practices and with approval from MD Anderson Cancer Center Institutional Animal Care and Use Committee (Houston, TX).

[10] = lung cancer patients harboring HER2 exon 20 insertion mutations

Molecule: COc1cc2ncnc(Nc3ccc(F)c(Cl)c3)c2cc1NC(=O)/C=C/CN1CCCCC1 [dacomitinib]
- inhibitory activity for HER2 mutants across all three exons [1]: had inhibitory activity
- ORR ([2]; HER2 mutant NSCLC): 11.5%
- response rate [2, 10]: 11.5%
- responses ([2]; patients bearing HER2 exon 20 insertion p.Y772dupYVMA): no responses

Molecule: CS(=O)(=O)CCNCc1ccc(-c2ccc3ncnc(Nc4ccc(OCc5cccc(F)c5)c(Cl)c4)c3c2)o1 [lapatinib]
- sensitivity of HER2 mutants to inhibitor [1]: robust resistance

Molecule: Cc1cc(C(=O)Nc2nc3cccc(Cl)c3n2[C@@H]2CCCCN(C(=O)/C=C/CN(C)C)C2)ccn1 [nazartinib]
- activity against cells expressing D769 variants [1]: did demonstrate activity
- inhibiting cell viability in cells expressing exon 20 mutations [1]: not effective

Molecule: CCOc1cc2ncc(C#N)c(Nc3ccc(OCc4ccccn4)c(Cl)c3)c2cc1NC(=O)/C=C/CN(C)C [neratinib]
- IC50 values in Ba/F3 drug screening ([1]; HER2 L755S, V777L, or L869R mutations): low IC50 values
- sensitivity of V842I mutation in the drug screen assays ([1]; HER2 V842I (exon 21)): not sensitive
- inhibitory activity for HER2 mutants across all three exons [1]: had inhibitory activity
- IC50 ([3]; Homo sapiens, MCF-10A, average over MCF10A G776del insVC, Y772dupYVMA, G778dupGSP cells, 72 hours): 150 nM
- increased tumor volume compared to vehicle control [4]: 28%
- inhibition of p-HER2 [5]: not
- objective response rate (ORR) ([6]; SUMMIT pan-cancer study, all HER2 mutations): less than 15%
- ORR ([6]; SUMMIT, HER2 kinase domain point mutations): 21.4%
- ORR ([6]; SUMMIT, exon 20 insertions): 7.1%
- response ([6]; SUMMIT, patients with colorectal cancer): did not respond
- response rate [6, 10]: 0%
- ORR ([6]; patients with breast cancer, single agent, multiple studies): 12.5%-32%
- response rate ([6]; patients with lung cancer, single agent): 0%-4%
- IC50 [7]: 68.8 nM

Molecule: C=CC(=O)Nc1cc(Nc2nccc(-c3cn(C)c4ccccc34)n2)c(OC)cc1N(C)CCN(C)C [osimertinib]
- activity against cells expressing D769 variants [1]: did demonstrate activity
- inhibiting cell viability in cells expressing exon 20 mutations [1]: not effective

Molecule: CCOc1cc2ncc(C#N)c(Nc3ccc(OCc4ccccn4)c(Cl)c3)c2cc1NC(=O)/C=C/[C@H]1CCCN1C [pyrotinib]
- selectivity index (SI, IC50 value mutant/IC50 value WT) ([3]; MCF10A HER2 mutant vs HER2 WT cell lines): 0.063

Molecule: CNC(=O)CN1CCC(Oc2cc3c(Nc4cccc(Cl)c4F)ncnc3cc2OC)CC1 [sapatinib]
- sensitivity of HER2 mutants to inhibitor [1]: robust resistance

Molecule: T-DM1
- inhibition of cell viability of MCF10A HER2 mutant cell lines ([3]; agent alone): did not inhibit cell viability
- ORR ([8]; patients harboring exon 20 insertion mutations): 54.5%
- partial responses ([8]; patients with exon 19 mutations): did not have partial responses
- tumor growth after best response ([9]; by day 30): tumor growth resumed in all mice
- mice with complete tumor regression ([9]; day 15 (best response), poziotinib 2.5 mg/kg, T-DM1 10 mg/kg single dose): 2/9
- median PFS (mPFS), time to tumor doubling from best response ([9]; poziotinib 2.5 mg/kg 5 days per week, T-DM1 10 mg/kg single IV dose): 27 days
